# Laboratory results published in patent publication US12227488B2, “Small molecule degraders of Helios and methods of use” (DANA-FARBER CANCER INSTITUTE, INC., priority 2018, dated 2025).
# Experiments:
# [1] = molecular target: GSPT1 (Homo sapiens, UniProt P15170+Q96SW2); experiment: Cellular degradation assay, eGFP-GSPT1 fusion with mCherry reporter in Flp-In 293 cells; assay type: cell-based; design: expressed in transfected cells; host or cells: Flp-In 293; settings: for GSPT1 GFP/RFP Relative Abundance: 5 h incubation, n=1
# Procedure: IKZF1Δ, IKZF2Δ, GSPT1 and SALL4 ZnF1-2 were subcloned into mammalian pcDNA5/FRT Vector (Ampicillin and Hygromycin B resistant) modified to contain MCS-eGFP-P2A-mCherry. […] Following 2-3 passage cycle, FACS (FACSAria™ II, BD) was used to enrich for cells expressing eGFP and mCherry. Cells stably expressing the IKZF1Δ, IKZF2Δ, GSPT1 or SALL4 Znf1-2 GFP fusions with mCherry reporter were seeded at 30-50% confluency in 384-well plates with 50 μL FluoroBrite™ DMEM media (Thermo Fisher Scientific, A18967) containing 10% FBS per well a day before compound treatment. Compound titrations were dispensed using a D300e Digital Dispenser (HP), normalized to 0.5% DMSO, and incubated with cells for 5 hours.
# The resulting images were analyzed using CellProfiler™. A series of image analysis steps (‘image analysis pipeline’) was constructed. First, the red and green channels were aligned and cropped to target the middle of each well (to avoid analysis of heavily clumped cells at the edges), and a background illumination function was calculated for both red and green channels of each well individually and subtracted to correct for illumination variations across the 384-well plate from various sources of error. An additional step was then applied to the green channel to suppress the analysis of large auto fluorescent artifacts and enhance the analysis of cell specific fluorescence by way of selecting for objects under a given size, 30 A.U., and with a given shape, speckles. mCherry-positive cells were then identified in the red channel filtering for objects between 8-60 pixels in diameter and using intensity to distinguish between clumped objects. The green channel was then segmented into GFP positive and negative areas and objects were labeled as GFP positive if at least 40% of it overlapped with a GFP positive area. The fraction of GFP-positive cells/mCherry-positive cells in each well was then calculated, and the green and red images were rescaled for visualization.
# The degradation assay was performed as described above. […] Degradation was measured after 5 h of compound treatment and the concentrations that lead to half degradation at 5 h (DC50,5 h) were calculated using the nonlinear fit variable slope model (GraphPad Software).
# [2] = molecular target: T1, CRBN and Helios (IKZF2) (Homo sapiens, UniProt Q96SW2+Q9UKS7); experiment: TR-FRET dimerization assay (CRBN-IKZF2 ternary complex formation); assay type: binding; settings: n=1
# T1 construct: His (N); Strep (N)
# Procedure, shortened: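 BODIPY-labeled DDB1ΔB-CRBN and in vitro biotinylated IKZF2 were treated with increasing compound concentrations plus tracer Terbium-Streptavidin and incubated 15 min at rt. Recruitment was quantified as the 520/490 nm TR-FRET ratio; values are single measurements (n=1), each averaged from at least three technical replicates.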
# [3] = system: IKZF2; experiment: Cellular degradation assay, eGFP-IKZF2Δ fusion with mCherry reporter in Flp-In 293 cells; assay type: cell-based; settings: for IKZF2 GFP/RFP Relative Abundance: 5 h incubation, n=1
# Procedure, shortened: (§1)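 Flp-In 293 cells stably expressing eGFP-tagged degron fusions with P2A-mCherry reporter were treated with compound titrations (0.5% DMSO) for 5 hours. Imaging quantified GFP-positive/mCherry-positive cell fraction per well; DC50 at 5 h from nonlinear variable-slope fit.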
# [4] = molecular target: T2, IKZF1 (Homo sapiens, UniProt Q13422); experiment: Cellular degradation assay, eGFP-IKZF1Δ fusion with mCherry reporter in Flp-In 293 cells; assay type: cell-based; settings: for IKZF1 GFP/RFP Relative Abundance: 5 h incubation, n=1
# T2 construct: expressed in transfected cells; host or cells: Flp-In 293
# Procedure, shortened: as §1
# [5] = compound concentration 2.00E−05
# [6] = compound concentration 2.00E−06
# [7] = compound concentration 2.00E−07
# [8] = compound concentration 6.6667E−05
# [9] = compound concentration 6.6667E−06
# [10] = compound concentration 6.6667E−07 (667 nM)
# [11] = half degradation at 5 h (DC50,5 h), triplicate, 11 point dose response
# T2 sequence (Q13422 83-213 isoform Q13422-7 limits assumed): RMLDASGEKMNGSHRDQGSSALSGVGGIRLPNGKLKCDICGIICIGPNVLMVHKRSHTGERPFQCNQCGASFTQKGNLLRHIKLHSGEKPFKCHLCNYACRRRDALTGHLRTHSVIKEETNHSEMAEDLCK
# T2 sequence (Q96SW2 whole entry partner, the tested form may be a part): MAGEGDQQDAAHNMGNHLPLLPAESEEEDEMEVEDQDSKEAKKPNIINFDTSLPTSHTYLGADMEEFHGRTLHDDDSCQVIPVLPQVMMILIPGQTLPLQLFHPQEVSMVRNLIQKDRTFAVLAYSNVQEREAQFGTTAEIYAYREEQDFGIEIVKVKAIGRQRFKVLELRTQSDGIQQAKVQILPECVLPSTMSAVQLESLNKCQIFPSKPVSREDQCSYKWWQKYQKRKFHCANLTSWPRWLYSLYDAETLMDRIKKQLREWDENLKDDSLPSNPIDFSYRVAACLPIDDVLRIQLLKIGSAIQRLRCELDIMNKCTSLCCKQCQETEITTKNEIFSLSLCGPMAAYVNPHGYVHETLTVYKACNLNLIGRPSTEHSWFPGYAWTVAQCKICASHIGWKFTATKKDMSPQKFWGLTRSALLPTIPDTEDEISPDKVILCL
# T2 sequence (Q16531 2-1140 partner limits assumed): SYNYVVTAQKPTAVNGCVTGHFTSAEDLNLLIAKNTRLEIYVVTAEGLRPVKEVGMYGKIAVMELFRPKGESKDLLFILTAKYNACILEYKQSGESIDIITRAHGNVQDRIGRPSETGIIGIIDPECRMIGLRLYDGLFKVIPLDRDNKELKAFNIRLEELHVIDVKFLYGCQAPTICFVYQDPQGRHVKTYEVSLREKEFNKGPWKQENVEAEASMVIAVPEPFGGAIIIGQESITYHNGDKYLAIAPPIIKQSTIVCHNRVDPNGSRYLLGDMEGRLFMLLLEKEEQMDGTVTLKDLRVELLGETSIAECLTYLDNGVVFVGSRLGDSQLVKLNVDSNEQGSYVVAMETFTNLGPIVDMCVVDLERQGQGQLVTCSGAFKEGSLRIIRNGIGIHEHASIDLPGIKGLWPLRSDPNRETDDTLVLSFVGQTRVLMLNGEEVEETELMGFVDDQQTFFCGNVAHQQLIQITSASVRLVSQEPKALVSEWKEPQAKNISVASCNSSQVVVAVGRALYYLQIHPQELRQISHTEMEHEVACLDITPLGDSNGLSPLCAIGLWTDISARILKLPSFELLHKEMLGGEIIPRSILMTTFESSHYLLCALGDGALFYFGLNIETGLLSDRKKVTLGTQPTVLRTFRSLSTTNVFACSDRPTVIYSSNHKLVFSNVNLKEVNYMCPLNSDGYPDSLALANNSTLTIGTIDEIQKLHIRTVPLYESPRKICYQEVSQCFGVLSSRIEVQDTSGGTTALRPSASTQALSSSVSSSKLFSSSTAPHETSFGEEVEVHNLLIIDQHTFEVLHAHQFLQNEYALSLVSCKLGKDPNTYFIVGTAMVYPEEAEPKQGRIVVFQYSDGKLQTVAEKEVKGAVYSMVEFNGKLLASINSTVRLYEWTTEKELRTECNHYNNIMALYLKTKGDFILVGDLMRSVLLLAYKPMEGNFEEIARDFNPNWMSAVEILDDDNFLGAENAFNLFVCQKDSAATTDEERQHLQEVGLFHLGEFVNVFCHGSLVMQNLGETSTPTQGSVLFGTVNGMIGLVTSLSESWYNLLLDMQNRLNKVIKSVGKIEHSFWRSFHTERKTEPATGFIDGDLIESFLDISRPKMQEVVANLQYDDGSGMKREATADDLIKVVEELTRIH
# GSPT1, sequence (P15170 whole entry, the tested form may be a part): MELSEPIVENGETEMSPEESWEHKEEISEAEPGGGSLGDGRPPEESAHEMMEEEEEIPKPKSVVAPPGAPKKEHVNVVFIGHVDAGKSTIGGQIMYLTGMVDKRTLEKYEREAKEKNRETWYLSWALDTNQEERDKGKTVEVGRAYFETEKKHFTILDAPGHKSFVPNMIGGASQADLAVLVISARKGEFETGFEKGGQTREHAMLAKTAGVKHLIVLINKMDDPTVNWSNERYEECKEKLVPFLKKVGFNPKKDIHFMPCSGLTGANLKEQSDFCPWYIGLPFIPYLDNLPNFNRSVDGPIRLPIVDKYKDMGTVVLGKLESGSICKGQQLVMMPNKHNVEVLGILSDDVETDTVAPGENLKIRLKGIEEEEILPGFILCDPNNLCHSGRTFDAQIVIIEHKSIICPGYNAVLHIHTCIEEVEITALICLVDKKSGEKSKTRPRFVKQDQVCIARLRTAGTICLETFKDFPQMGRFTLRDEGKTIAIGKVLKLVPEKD
# GSPT1, sequence (Q96SW2 whole entry, the tested form may be a part): as the sequence (Q96SW2 whole entry partner, the tested form may be a part) above
# GSPT1, sequence (Q16531 whole entry partner, the tested form may be a part): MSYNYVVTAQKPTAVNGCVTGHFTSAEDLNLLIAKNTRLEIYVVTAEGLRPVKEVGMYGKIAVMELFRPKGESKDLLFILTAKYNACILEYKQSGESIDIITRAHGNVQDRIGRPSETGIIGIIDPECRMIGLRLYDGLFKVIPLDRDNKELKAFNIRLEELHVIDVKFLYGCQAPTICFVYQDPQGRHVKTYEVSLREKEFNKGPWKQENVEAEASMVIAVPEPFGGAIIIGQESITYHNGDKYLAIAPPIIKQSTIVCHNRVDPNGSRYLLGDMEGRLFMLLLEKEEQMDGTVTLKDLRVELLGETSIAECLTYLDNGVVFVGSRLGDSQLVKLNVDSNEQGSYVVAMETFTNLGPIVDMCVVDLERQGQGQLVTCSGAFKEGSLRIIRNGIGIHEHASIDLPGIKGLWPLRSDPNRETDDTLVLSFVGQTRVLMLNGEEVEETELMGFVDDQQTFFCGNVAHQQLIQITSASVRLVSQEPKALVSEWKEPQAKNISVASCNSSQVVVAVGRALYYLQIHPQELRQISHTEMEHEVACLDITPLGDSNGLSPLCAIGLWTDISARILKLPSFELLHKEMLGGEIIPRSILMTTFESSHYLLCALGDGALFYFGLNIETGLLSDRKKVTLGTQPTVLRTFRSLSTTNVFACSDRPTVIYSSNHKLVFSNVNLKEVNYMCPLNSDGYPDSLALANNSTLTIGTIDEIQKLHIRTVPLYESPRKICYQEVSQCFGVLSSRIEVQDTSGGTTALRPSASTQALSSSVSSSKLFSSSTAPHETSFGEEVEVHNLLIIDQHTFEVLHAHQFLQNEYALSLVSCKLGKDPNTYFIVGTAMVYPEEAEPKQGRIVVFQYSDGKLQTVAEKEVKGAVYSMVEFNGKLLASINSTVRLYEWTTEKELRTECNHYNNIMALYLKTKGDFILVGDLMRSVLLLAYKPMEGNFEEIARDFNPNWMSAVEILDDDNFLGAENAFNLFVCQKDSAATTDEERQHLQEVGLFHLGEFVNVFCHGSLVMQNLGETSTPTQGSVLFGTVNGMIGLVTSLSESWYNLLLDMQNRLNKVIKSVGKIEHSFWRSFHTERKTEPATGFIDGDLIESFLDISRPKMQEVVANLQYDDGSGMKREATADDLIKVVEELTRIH
# T1 sequence (Q96SW2 whole entry): as the sequence (Q96SW2 whole entry partner, the tested form may be a part) above
# T1 sequence (Q9UKS7 whole entry): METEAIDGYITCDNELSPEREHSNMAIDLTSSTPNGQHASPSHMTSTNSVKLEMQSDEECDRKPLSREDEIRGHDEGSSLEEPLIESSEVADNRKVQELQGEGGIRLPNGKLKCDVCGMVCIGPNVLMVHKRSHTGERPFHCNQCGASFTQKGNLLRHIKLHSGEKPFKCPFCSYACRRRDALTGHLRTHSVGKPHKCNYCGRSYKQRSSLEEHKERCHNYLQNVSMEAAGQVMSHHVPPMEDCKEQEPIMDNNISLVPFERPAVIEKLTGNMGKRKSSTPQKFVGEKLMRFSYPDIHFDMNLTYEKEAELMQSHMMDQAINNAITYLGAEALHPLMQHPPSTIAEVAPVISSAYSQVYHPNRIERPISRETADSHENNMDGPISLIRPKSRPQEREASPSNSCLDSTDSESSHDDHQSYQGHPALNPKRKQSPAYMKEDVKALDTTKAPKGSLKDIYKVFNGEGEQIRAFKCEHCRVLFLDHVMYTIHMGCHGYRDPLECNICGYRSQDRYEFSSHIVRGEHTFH
Compound,"GSPT1 GFP/RFP Relative Abundance [1, 5]","GSPT1 GFP/RFP Relative Abundance [1, 6]","GSPT1 GFP/RFP Relative Abundance [1, 7]","TR-FRET-IKZF2 (Normalized to CC-885) [2, 8]","TR-FRET-IKZF2 (Normalized to CC-885) [2, 9]","TR-FRET-IKZF2 (Normalized to CC-885) [2, 10]","IKZF2 GFP/RFP Relative Abundance [3, 5]","IKZF2 GFP/RFP Relative Abundance [3, 6]","IKZF2 GFP/RFP Relative Abundance [3, 7]","IKZF1 GFP/RFP Relative Abundance [4, 5]","IKZF1 GFP/RFP Relative Abundance [4, 6]","IKZF1 GFP/RFP Relative Abundance [4, 7]","DC50 [1, 11]","DC50 [3, 11]","potency of IKZF1 degradation, in words ([4]; Table 3 summary)","DC50 [4, 11]"
"Cc1ccc(NC(=O)OCc2cccc(NC3=CC(=O)N(C4CCC(=O)NC4=O)C3=O)c2)cc1Cl (stereo not shown) [Compound 48, 3-((1-(2,6-dioxopiperidin-3-yl)-2,5-dioxo-2,5-dihydro-1H-pyrrol-3-yl)amino)benzyl (3-chloro-4-methylphenyl)carbamate]",1.591,0.365,0.579,0.140,0.079,0.044,1.053,1.076,1.057,1.041,0.903,1.000,,,,
"Cc1ccc(NC(=O)c2cccc(NC3=CC(=O)N(C4CCC(=O)NC4=O)C3=O)c2)cc1Cl (stereo not shown) [Compound 49, N-(3-chloro-4-methylphenyl)-3-((1-(2,6-dioxopiperidin-3-yl)-2,5-dioxo-2,5-dihydro-1H-pyrrol-3-yl)amino)benzamide]",0.125,0.055,0.069,0.801,0.690,0.472,0.665,0.612,0.830,0.268,0.187,0.314,> 1000 nM,7.2 nM,most potent against IKZF1,1.9 nM
"Cc1ccc(NC(=O)Cc2cccc(NC3=CC(=O)N(C4CCC(=O)NC4=O)C3=O)c2)cc1Cl (stereo not shown) [Compound 50, N-(3-chloro-4-methylphenyl)-2-(3-((1-(2,6-dioxopiperidin-3-yl)-2,5-dioxo-2,5-dihydro-1H-pyrrol-3-yl)amino)phenyl)acetamide]",0.645,0.702,0.643,1.011,0.889,0.848,0.188,0.195,0.267,0.073,0.068,0.093,,,,
"Cc1ccc(NC(=O)Oc2cccc(NC3=CC(=O)N(C4CCC(=O)NC4=O)C3=O)c2)cc1Cl (stereo not shown) [Compound 51, 3-((1-(2,6-dioxopiperidin-3-yl)-2,5-dioxo-2,5-dihydro-1H-pyrrol-3-yl)amino)phenyl (3-chloro-4-methylphenyl)carbamate]",1.680,0.829,0.775,0.037,0.032,0.017,1.083,1.044,1.024,0.861,1.001,1.026,,,,
"Cc1ccc(NC(=O)N(C)Cc2cccc(NC3=CC(=O)N(C4CCC(=O)NC4=O)C3=O)c2)cc1Cl (stereo not shown) [Compound 52, 3-(3-chloro-4-methylphenyl)-1-(3-((1-(2,6-dioxopiperidin-3-yl)-2,5-dioxo-2,5-dihydro-1H-pyrrol-3-yl)amino)benzyl)-1-methylurea]",0.308,0.815,0.787,1.559,1.367,1.205,0.058,0.059,0.062,0.103,0.092,0.080,,,,
"Cc1ccc(NC(=O)CCc2cccc(NC3=CC(=O)N(C4CCC(=O)NC4=O)C3=O)c2)cc1Cl (stereo not shown) [Compound 53, N-(3-chloro-4-methylphenyl)-3-(3-((1-(2,6-dioxopiperidin-3-yl)-2,5-dioxo-2,5-dihydro-1H-pyrrol-3-yl)amino)phenyl)propanamide]",0.232,0.982,0.931,1.708,1.574,1.455,0.030,0.022,0.029,0.110,0.077,0.078,,,,
"Cc1ccc(NC(=O)Nc2cccc(NC3=CC(=O)N(C4CCC(=O)NC4=O)C3=O)c2)cc1C (stereo not shown) [Compound 55, 1-(3,4-dimethylphenyl)-3-(3-((1-(2,6-dioxopiperidin-3-yl)-2,5-dioxo-2,5-dihydro-1H-pyrrol-3-yl)amino)phenyl)urea]",0.096,0.153,0.180,0.523,0.430,0.321,1.029,0.936,0.938,0.471,0.212,0.251,,,,
